Experimental data from patent publication US11058705B2, “Drug formulations” (Astex Pharmaceuticals, Inc., priority 2011, dated 2021).
pEC50: −log10 of the molar value. Values after ≈ are worked out from the molar mass of the structure shown. Like-named read-outs stand apart in the source and are kept apart here.

Experiments:
DNA methylation = test: Cell-based GFP assay for reactivation of silenced GFP transgene (demethylating activity); settings: for GFP Expression Level: three days, decitabine 1 μM or test compound 30-50 μM, fraction of viable cells expressing GFP; for pEC50: read-out: GFP50
Protocol: The demethylating activity of compounds of the invention was tested in a cell-based green fluorescent protein (GFP) assay. In the assay, a decrease in methylation resulting from exposure to a methylation inhibitor led to GFP expression, and was readily scored.
The CMV-EE210 cell line containing the epigenetically silenced GFP transgene was used to assay for reactivation of GFP expression by flow cytometry. CMV-EE210 was made by transfecting NIH 3T3 cells with the pTR-UF/UF1/UF2 plasmid, which contained pBS(+) (Stratagene, Inc.) with a cytomegalovirus (CMV) promoter driving a humanized GFP gene adapted for expression in mammalian cells. After transfection, high-level GFP expressing cells were initially selected by FACS analysis and sorting using a MoFlo cytometer (Cytomation, Inc.).
Decitabine, a potent inhibitor of mammalian DNMT 1, was used as a positive control. […] Cells were then seeded to 30% confluence (˜5000 cell/well) in a 96-well plate containing the test compounds, and grown for three days in at 37° C. in 5% CO2.
The plates were examined under a fluorescent microscope using a 450-490 excitation filter (13 filter cube, Leica, Deerfield Ill.). Wells were scored g1 positive, g2 positive, or g3 if GFP was expressed in 10%, 30%, >75% of viable cells, respectively.
Table 1 provides the results of the test for decitabine and the test compounds as DNA methylation inhibitors. GFP50 is the concentration of an inhibitor at which the Green Fluorescent Protein (GFP) expression level is reduced from g3 to g1/2.

[1] = Solubility in formulation solvent and in water; assay type: physicochemical; settings: organic solvent or mixture; substantially anhydrous solvent of the formulations of the invention
Source text: The good chemical stability taken together with the excellent solubility identified the glycol/glycerin/ethanol (65:25:10) system as a formulation for use in animal experiments.

LINE-1 DNA methylation = LINE-1 DNA methylation in blood samples, repeat dose study; assay type: in vivo, cynomolgus monkeys; settings: until day 22, p<0.05 versus level prior to initial dosing
Protocol: In a repeat dose study, monkeys were dosed 3× weekly subcutaneously (3 mg/kg). […] (FIGS. 1 and 2.) Pharmacodynamic properties (not shown) were monitored and were acceptable. Blood samples were drawn periodically to assay LINE-1 DNA methylation.

[2] = Stability in solvent formulations by HPLC; assay type: physicochemical; settings: for % decomposition per hour / Percent compound detected: sodium salt
Protocol: The stability of a compound of the invention in various formulations under various storage conditions was investigated. Stability was determined by HPLC at the designated time intervals.

[3] = concentration at which GFP expression level is reduced from g3 to g1/2, CMV-EE210 cells

For Nc1ncn([C@H]2CC(OP(=O)(O)OC[C@H]3O[C@@H](n4cnc5c(=O)[nH]c(N)nc54)CC3O)[C@@H](CO)O2)c(=O)n1 (stereo in doubt) [Compound I-1], the “GFP Expression Level” value (DNA methylation; CMV-EE210 cells) was “g3 (>75% of viable cells)”, the pEC50 (DNA methylation; [3]) was 6.40 and the solubility [1] was 130 to 150 mg/mL (≈ 233 to 269 mM). For the same compound, the “Change in LINE-1 DNA methylation” value (LINE-1 DNA methylation) was “Decreases in LINE-1 DNA methylation”, the “Stability in anhydrous DMSO” value ([2]; anhydrous DMSO) was “stable” and the Improvement in stability ([2]; combined effects of cooling plus addition of ethanol to the propylene glycol/glycerin system) was 66 fold. For the same compound, the Improvement in stability ([2]; propylene glycol/glycerin/ethanol (65:25:10), changing from warmer to colder storage conditions) was 40 fold, the “% decomposition per hour” value ([2]; DMSO/water (1:1, w/w), 25° C./60% relative humidity) was 0.72 and the Percent compound detected ([2]; DMSO/water (1:1, w/w), 25° C./60% relative humidity, 5 hours) was 90.1%. For the same compound, the Percent compound detected ([2]; DMSO/water (1:1, w/w), 25° C./60% relative humidity, time point 0) was 93.7%, the “% decomposition per hour” value ([2]; DMSO/water (3:1, w/w), 25° C./60% relative humidity) was 0.10 and the Percent compound detected ([2]; DMSO/water (3:1, w/w), 25° C./60% relative humidity, 24 hours) was 94.2%. The Percent compound detected ([2]; DMSO/water (3:1, w/w), 25° C./60% relative humidity, time point 0) was 96.6%, the “% decomposition per hour” value ([2]; propylene glycol/glycerin (70:30, v/v), room temperature) was 0.021 and the Percent compound detected ([2]; propylene glycol/glycerin (70:30, v/v), room temperature, 24 hours) was 96.3%. The Percent compound detected ([2]; propylene glycol/glycerin (70:30, v/v), room temperature, time point 0) was 96.8%, the “% decomposition per hour” value ([2]; propylene glycol/glycerin/ethanol (65:25:10, w/w/w), 2-8° C.) was 0.00032 and the Percent compound detected ([2]; propylene glycol/glycerin/ethanol (65:25:10, w/w/w), 2-8° C., 3 months) was 95.1%. For the same compound, the Percent compound detected ([2]; propylene glycol/glycerin/ethanol (65:25:10, w/w/w), 2-8° C., time point 0) was 95.8%, the “% decomposition per hour” value ([2]; propylene glycol/glycerin/ethanol (65:25:10, w/w/w), 25° C./60% relative humidity) was 0.013 and the Percent compound detected ([2]; propylene glycol/glycerin/ethanol (65:25:10, w/w/w), 25° C./60% relative humidity, 3 months) was 67.6%. The Percent compound detected ([2]; propylene glycol/glycerin/ethanol (65:25:10, w/w/w), 25° C./60% relative humidity, time point 0) was 95.8%, the “% decomposition per hour” value ([2]; water, pH 7.0, 2-8° C.) was 0.14 and the Percent compound detected ([2]; water, pH 7.0, 2-8° C., 5 hours) was 95.1%. The Percent compound detected ([2]; water, pH 7.0, 2-8° C., time point 0) was 95.8%, the “% decomposition per hour” value ([2]; water, pH 7.0, room temperature) was 1.1 and the Percent compound detected ([2]; water, pH 7.0, room temperature, 5 hours) was 90.4%. It also gave a Percent compound detected ([2]; water, pH 7.0, room temperature, time point 0) of 95.8%.
For Nc1ncn([C@H]2CC(O)[C@@H](COP(=O)(O)OC3C[C@H](n4cnc5c(=O)[nH]c(N)nc54)O[C@@H]3CO)O2)c(=O)n1 (some centres unmarked) [Compound I-2], the “GFP Expression Level” value (DNA methylation; CMV-EE210 cells) was “g3 (>75% of viable cells)” and the pEC50 (DNA methylation; [3]) was 6.15.
With Nc1ncn([C@H]2C[C@H](O)[C@@H](CO)O2)c(=O)n1 [Decitabine, 5-aza-2′-deoxycytidine, reference compound] the “GFP Expression Level” value (DNA methylation; CMV-EE210 cells) was “g3 (>75% of viable cells)” and the pEC50 (DNA methylation) was 6.30.
